# Legend:
# Experiment in all cases: cells
# Conditions in all cases: Homo sapiens
# [1] = test system: A388; assay type: functional, cell-based;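 note: growth inhibition of human A388 cells, read out with a cell viability assay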
# Description: SANGER: Inhibition of human A388 cell growth in a cell viability assay.
# [2] = test system: RPMI-8866; assay type: functional, cell-based
# Description: SANGER: Inhibition of human RPMI-8866 cell growth in a cell viability assay.
# [3] = test system: ES3; assay type: functional, cell-based;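 note: growth inhibition of ES3 cells, read out with a cell viability assay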
# Description: SANGER: Inhibition of human ES3 cell growth in a cell viability assay.
# [4] = test system: KLE; assay type: functional, cell-based;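 note: growth inhibition of human KLE cells, read out with a cell viability assay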
# Description: SANGER: Inhibition of human KLE cell growth in a cell viability assay.
# [5] = test system: HT; assay type: functional, cell-based
# Description: SANGER: Inhibition of human HT cell growth in a cell viability assay.
# [6] = test system: GI-1; assay type: functional, cell-based;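 note: growth inhibition of human GI-1 cells, measured with a cell viability readout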
# Description: SANGER: Inhibition of human GI-1 cell growth in a cell viability assay.
# [7] = test system: LXF-289 cell line; assay type: functional, cell-based
# Description: SANGER: Inhibition of human LXF-289 cell growth in a cell viability assay.
# [8] = test system: TE-10; assay type: functional, cell-based;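 note: growth inhibition of TE-10 cells, measured by a cell viability assay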
# Description: SANGER: Inhibition of human TE-10 cell growth in a cell viability assay.
# [9] = test system: COLO-824; assay type: functional, cell-based
# Description: SANGER: Inhibition of human COLO-824 cell growth in a cell viability assay.
# [10] = test system: ES1; assay type: functional, cell-based;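 note: growth inhibition of ES1 cells, read out with a cell viability assay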
# Description: SANGER: Inhibition of human ES1 cell growth in a cell viability assay.
# [11] = test system: BB30-HNC; assay type: functional, cell-based;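 note: growth inhibition of the cultured cell line, read out by a cell viability assay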
# Description: SANGER: Inhibition of human BB30-HNC cell growth in a cell viability assay.
# [12] = test system: QIMR-WIL; assay type: functional, cell-based;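 note: growth inhibition of QIMR-WIL cells, read out with a cell viability assay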
# Description: SANGER: Inhibition of human QIMR-WIL cell growth in a cell viability assay.
# [13] = test system: KM12; assay type: functional, cell-based;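 note: KM12 cell growth inhibition, read out with a cell viability assay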
# Description: SANGER: Inhibition of human KM12 cell growth in a cell viability assay.
# [14] = test system: DU-4475; assay type: functional, cell-based
# Description: SANGER: Inhibition of human DU-4475 cell growth in a cell viability assay.
# [15] = test system: SK-PN-DW; assay type: functional, cell-based;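 note: growth inhibition measured with a viability assay on these cells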
# Description: SANGER: Inhibition of human SK-PN-DW cell growth in a cell viability assay.
# [16] = test system: 697; assay type: functional, cell-based
# Description: SANGER: Inhibition of human 697 cell growth in a cell viability assay.
# [17] = test system: COLO-829; assay type: functional, cell-based
# Description: SANGER: Inhibition of human COLO-829 cell growth in a cell viability assay.
# [18] = test system: Ramos-2G6-4C10; assay type: functional, cell-based;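 note: growth inhibition of the cell line, measured by a cell viability read-out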
# Description: SANGER: Inhibition of human Ramos-2G6-4C10 cell growth in a cell viability assay.
# [19] = test system: HCE-T; assay type: functional, cell-based;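 note: cell viability assay read-out, reporting inhibition of HCE-T cell growth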
# Description: SANGER: Inhibition of human HCE-T cell growth in a cell viability assay.
# [20] = test system: GT3TKB; assay type: functional, cell-based;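 note: growth inhibition of the cell line, read out with a cell viability assay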
# Description: SANGER: Inhibition of human GT3TKB cell growth in a cell viability assay.
# [21] = test system: LS-1034; assay type: functional, cell-based
# Description: SANGER: Inhibition of human LS-1034 cell growth in a cell viability assay.
# [22] = test system: A101D; assay type: functional, cell-based;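 note: growth inhibition of the cell line, measured with a viability assay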
# Description: SANGER: Inhibition of human A101D cell growth in a cell viability assay.
# [23] = test system: KNS-81-FD; assay type: functional, cell-based;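 note: growth inhibition of KNS-81-FD cells, read out with a cell viability assay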
# Description: SANGER: Inhibition of human KNS-81-FD cell growth in a cell viability assay.
# [24] = test system: L-428; assay type: functional, cell-based
# Description: SANGER: Inhibition of human L-428 cell growth in a cell viability assay.
# [25] = test system: UACC-257; assay type: functional, cell-based
# Description: SANGER: Inhibition of human UACC-257 cell growth in a cell viability assay.
# [26] = test system: ES4; assay type: functional, cell-based;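 note: growth inhibition of human ES4 cells, read out by a cell viability assay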
# Description: SANGER: Inhibition of human ES4 cell growth in a cell viability assay.
# [27] = test system: CCRF-CEM; assay type: functional, cell-based;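 note: inhibition of CCRF-CEM cell growth, measured by a cell viability assay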
# Description: SANGER: Inhibition of human CCRF-CEM cell growth in a cell viability assay.
# [28] = test system: LS-411N; assay type: functional, cell-based
# [29] = test system: ONS-76; assay type: functional, cell-based;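 note: growth inhibition of human ONS-76 cells, read out with a cell viability assay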
# Description: SANGER: Inhibition of human ONS-76 cell growth in a cell viability assay.
# [30] = test system: ML-2; assay type: functional, cell-based;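 note: growth inhibition of ML-2 cells, measured with a cell viability readout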
# Description: SANGER: Inhibition of human ML-2 cell growth in a cell viability assay.
# [31] = test system: SNU-C2B; assay type: functional, cell-based;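 note: cell viability readout used to measure compound-driven suppression of SNU-C2B cell proliferation, IC50 marking half-maximal growth inhibition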
# Description: SANGER: Inhibition of human SNU-C2B cell growth in a cell viability assay.
# [32] = test system: LB831-BLC; assay type: functional, cell-based;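 note: growth inhibition of LB831-BLC cells, read out with a cell viability assay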
# Description: SANGER: Inhibition of human LB831-BLC cell growth in a cell viability assay.
# [33] = test system: MHH-PREB-1; assay type: functional, cell-based;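 note: cell viability assay measuring inhibition of proliferation of human MHH-PREB-1 cells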
# Description: SANGER: Inhibition of human MHH-PREB-1 cell growth in a cell viability assay.
# [34] = test system: SF-126; assay type: functional, cell-based;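 note: growth inhibition of human SF126 cells, read out with a cell viability assay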
# Description: SANGER: Inhibition of human SF126 cell growth in a cell viability assay.
# [35] = test system: MMAC-SF; assay type: functional, cell-based;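 note: growth inhibition of human MMAC-SF cells, read out with a cell viability assay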
# Description: SANGER: Inhibition of human MMAC-SF cell growth in a cell viability assay.
# [36] = test system: HuTu80; assay type: functional, cell-based, HUTU-80;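 note: growth inhibition of HuTu80 human cells, determined with a cell viability readout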
# Description: SANGER: Inhibition of human HUTU-80 cell growth in a cell viability assay.
# [37] = test system: K562; assay type: functional, cell-based
# Description: SANGER: Inhibition of human K-562 cell growth in a cell viability assay.
# [38] = test system: HCE-4; assay type: functional, cell-based;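 note: cell viability assay measuring inhibition of growth in the human HCE-4 cell line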
# Description: SANGER: Inhibition of human HCE-4 cell growth in a cell viability assay.
# [39] = test system: C2BBe1; assay type: functional, cell-based;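 note: growth inhibition of C2BBe1 cells, read out through a viability assay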
# Description: SANGER: Inhibition of human C2BBe1 cell growth in a cell viability assay.
# [40] = test system: COLO-668; assay type: functional, cell-based
# Description: SANGER: Inhibition of human COLO-668 cell growth in a cell viability assay.
# [41] = test system: NB5; assay type: functional, cell-based;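 note: growth inhibition of NB5 cells, read out as cell viability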
# Description: SANGER: Inhibition of human NB5 cell growth in a cell viability assay.
# [42] = test system: TK-10; assay type: functional, cell-based;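 note: growth inhibition of TK-10 cells, read out in a cell viability assay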
# Description: SANGER: Inhibition of human TK10 cell growth in a cell viability assay.
# [43] = test system: NCI-H1395; assay type: functional, cell-based;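 note: cell viability assay read-out quantifying reduced proliferation of human NCI-H1395 cells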
# Description: SANGER: Inhibition of human NCI-H1395 cell growth in a cell viability assay.
# [44] = test system: A4-Fuk; assay type: functional, cell-based;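 note: growth inhibition of A4-Fuk cells, read out by a cell viability assay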
# Description: SANGER: Inhibition of human A4-Fuk cell growth in a cell viability assay.
# [45] = test system: DOHH-2; assay type: functional, cell-based;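 note: growth inhibition of human DOHH-2 cells, read out with a cell viability assay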
# Description: SANGER: Inhibition of human DOHH-2 cell growth in a cell viability assay.
# [46] = test system: BB65-RCC; assay type: functional, cell-based;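 note: growth inhibition of the cell line, measured with a cell viability assay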
# Description: SANGER: Inhibition of human BB65-RCC cell growth in a cell viability assay.
# [47] = test system: SNB-75; assay type: functional, cell-based;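 note: cell viability assay measuring growth inhibition of human SNB-75 cells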
# Description: SANGER: Inhibition of human SNB75 cell growth in a cell viability assay.
# [48] = test system: NB69; assay type: functional, cell-based;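 note: growth inhibition of NB69 cells, determined by a cell viability assay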
# Description: SANGER: Inhibition of human NB69 cell growth in a cell viability assay.
# [49] = test system: LOX IMVI; assay type: functional, cell-based
# Description: SANGER: Inhibition of human LOXIMVI cell growth in a cell viability assay.
# [50] = test system: OCI-AML2; assay type: functional, cell-based;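 note: growth inhibition of OCI-AML2 cells, read out with a cell viability assay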
# Description: SANGER: Inhibition of human OCI-AML2 cell growth in a cell viability assay.
# [51] = test system: KM-H2; assay type: functional, cell-based;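 note: growth inhibition of KM-H2 cells, read out by a cell viability assay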
# Description: SANGER: Inhibition of human KM-H2 cell growth in a cell viability assay.
# [52] = test system: ACN; assay type: functional, cell-based;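 note: growth inhibition of the human ACN cell line, read out via cell viability testing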
# Description: SANGER: Inhibition of human ACN cell growth in a cell viability assay.
# [53] = test system: TGBC24TKB; assay type: functional, cell-based;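 note: growth inhibition of human TGBC24TKB cells, read out with a cell viability assay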
# Description: SANGER: Inhibition of human TGBC24TKB cell growth in a cell viability assay.
# [54] = test system: MFH-ino; assay type: functional, cell-based;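 note: growth inhibition of human MFH-ino cells, read out by a cell viability assay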
# Description: SANGER: Inhibition of human MFH-ino cell growth in a cell viability assay.
# [55] = test system: ETK-1; assay type: functional, cell-based;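 note: growth inhibition of human ETK-1 cells, read out with a cell viability assay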
# Description: SANGER: Inhibition of human ETK-1 cell growth in a cell viability assay.
# [56] = test system: NCI-H226; assay type: functional, cell-based;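 note: cell viability read-out used to gauge growth inhibition of the cells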
# Description: SANGER: Inhibition of human NCI-H226 cell growth in a cell viability assay.
# [57] = test system: LB1047-RCC; assay type: functional, cell-based;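 note: inhibition of cell growth, determined with a cell viability assay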
# Description: SANGER: Inhibition of human LB1047-RCC cell growth in a cell viability assay.
# [58] = test system: NB6; assay type: functional, cell-based;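 note: growth inhibition of NB6 cells, read out by a cell viability assay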
# Description: SANGER: Inhibition of human NB6 cell growth in a cell viability assay.
# [59] = test system: U-87 MG; assay type: functional, cell-based, U-87MG ATCC;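 note: growth inhibition of the cells measured with a viability assay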
# Description: SANGER: Inhibition of human U-87-MG cell growth in a cell viability assay.
# [60] = test system: IA-LM; assay type: functional, cell-based;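 note: cell viability assay measuring growth inhibition of human IA-LM cells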
# Description: SANGER: Inhibition of human IA-LM cell growth in a cell viability assay.
# [61] = test system: JVM-3; assay type: functional, cell-based;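 note: growth inhibition of human JVM-3 cells, read out with a cell viability assay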
# Description: SANGER: Inhibition of human JVM-3 cell growth in a cell viability assay.
# [62] = test system: TE-6; assay type: functional, cell-based;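 note: growth inhibition of TE-6 cells, read out with a cell viability assay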
# Description: SANGER: Inhibition of human TE-6 cell growth in a cell viability assay.
# [63] = test system: SHP77; assay type: functional, cell-based, SHP-77;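 note: growth inhibition of human SHP-77 cells measured by a cell viability assay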
# Description: SANGER: Inhibition of human SHP-77 cell growth in a cell viability assay.
# [64] = test system: DMS-114; assay type: functional, cell-based
# [65] = test system: SW 954; assay type: functional, cell-based
# Description: SANGER: Inhibition of human SW954 cell growth in a cell viability assay.
compound,measurement,setting,value
COc1cc(Nc2c(C#N)cnc3cc(OCCCN4CCN(C)CC4)c(OC)cc23)c(Cl)cc1Cl [BOSUTINIB],IC50,[1],> 2 µM
same,IC50,[2],1.26 µM
same,IC50,[3],> 2 µM
same,IC50,[4],> 2 µM
same,IC50,[5],> 2 µM
same,IC50,[6],> 2 µM
same,IC50,[7],> 2 µM
same,IC50,[8],> 2 µM
same,IC50,[9],> 2 µM
same,IC50,[10],0.675 µM
same,IC50,[11],1.29 µM
same,IC50,[12],1.09 µM
same,IC50,[13],> 2 µM
same,IC50,[14],> 2 µM
same,IC50,[15],> 2 µM
same,IC50,[16],0.456 µM
same,IC50,[17],> 2 µM
same,IC50,[18],> 2 µM
same,IC50,[19],> 2 µM
same,IC50,[20],> 2 µM
same,IC50,[21],> 2 µM
same,IC50,[22],1.94 µM
same,IC50,[23],> 2 µM
same,IC50,[24],> 2 µM
same,IC50,[25],> 2 µM
same,IC50,[26],1.21 µM
same,IC50,[27],> 2 µM
same,IC50,[28],> 2 µM
same,IC50,[29],1.68 µM
same,IC50,[30],> 2 µM
same,IC50,[31],> 2 µM
same,IC50,[32],> 2 µM
same,IC50,[33],> 2 µM
same,IC50,[34],> 2 µM
same,IC50,[35],> 2 µM
same,IC50,[36],> 2 µM
same,IC50,[37],> 2 µM
same,IC50,[38],> 2 µM
same,IC50,[39],> 2 µM
same,IC50,[40],> 2 µM
same,IC50,[41],> 2 µM
same,IC50,[42],> 2 µM
same,IC50,[43],> 2 µM
same,IC50,[44],1.31 µM
same,IC50,[45],> 2 µM
same,IC50,[46],1.9 µM
same,IC50,[47],> 2 µM
same,IC50,[48],> 2 µM
same,IC50,[49],1.75 µM
same,IC50,[50],> 2 µM
same,IC50,[51],> 2 µM
same,IC50,[52],> 2 µM
same,IC50,[53],> 2 µM
same,IC50,[54],> 2 µM
same,IC50,[55],> 2 µM
same,IC50,[56],> 2 µM
same,IC50,[57],1.24 µM
same,IC50,[58],> 2 µM
same,IC50,[59],> 2 µM
same,IC50,[60],> 2 µM
same,IC50,[61],1.05 µM
same,IC50,[62],> 2 µM
same,IC50,[63],> 2 µM
same,IC50,[64],> 2 µM
same,IC50,[65],1.55 µM

# Reference: ChEMBL document CHEMBL1201861, “Genomics of Drug Sensitity in Cancer screening data, Wellcome Trust Sanger Institute”
